Experimental data reported in PubChem BioAssay (NCI).
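Five concentrations, 48 hours, 96-well plates. GI50 = concentration required for 50% inhibition of growth. TGI: total growth inhibition.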

What was measured:
Test in all cases: DTP human tumour cell line panel, 48 h
OVCAR-5 ovarian = system: OVCAR-5 ovarian
COLO 205 colon = system: COLO 205 colon
RXF 393 renal = system: RXF 393 renal
TK-10 renal = system: TK-10 renal
SK-MEL-28 melanoma = system: SK-MEL-28 melanoma
SK-MEL-2 melanoma = system: SK-MEL-2 melanoma
KM12 colon = system: KM12 colon
UO-31 renal = system: UO-31 renal
EKVX NSCLC = system: EKVX NSCLC
IGROV1 ovarian = system: IGROV1 ovarian

Structure (SMILES): Cc1cc(C)cc(NC(N)=S)c1
- TGI (OVCAR-5 ovarian): > 100 µM
- TGI (COLO 205 colon): 59.1 µM
- TGI (RXF 393 renal): 98.1 µM
- TGI (TK-10 renal): > 100 µM
- TGI (SK-MEL-28 melanoma): > 100 µM
- TGI (SK-MEL-2 melanoma): > 100 µM
- TGI (KM12 colon): > 100 µM
- TGI (UO-31 renal): > 100 µM
- TGI (EKVX NSCLC): > 100 µM
- TGI (IGROV1 ovarian): > 100 µM

Structure (SMILES): Cc1cc(Cl)ccc1NC(=O)CC1SC(=Nc2ccccc2Cl)NC1=O (stereo not drawn)
- TGI (OVCAR-5 ovarian): > 100 µM
- TGI (COLO 205 colon): 47.1 µM
- TGI (RXF 393 renal): 84.3 µM
- TGI (TK-10 renal): > 100 µM
- TGI (SK-MEL-28 melanoma): > 100 µM
- TGI (SK-MEL-2 melanoma): > 100 µM
- TGI (KM12 colon): > 100 µM
- TGI (UO-31 renal): > 100 µM
- TGI (EKVX NSCLC): > 100 µM
- TGI (IGROV1 ovarian): > 100 µM

Structure (SMILES): Cc1cccc(NC(=O)c2cccc([N+](=O)[O-])c2O)c1C
- TGI (OVCAR-5 ovarian): > 89.2 µM
- TGI (COLO 205 colon): 32.9 µM
- TGI (RXF 393 renal): 53.6 µM
- TGI (TK-10 renal): > 100 µM
- TGI (SK-MEL-28 melanoma): > 100 µM
- TGI (SK-MEL-2 melanoma): 46.9 µM
- TGI (KM12 colon): > 69.4 µM
- TGI (UO-31 renal): 74.7 µM
- TGI (EKVX NSCLC): > 100 µM
- TGI (IGROV1 ovarian): > 100 µM

Structure (SMILES): Cc1ccc(O)c(NC(=O)c2ccc(CNc3ccnc(C(F)(F)F)c3)cc2)c1
- GI50 (OVCAR-5 ovarian): 16.3 µM
- TGI (OVCAR-5 ovarian): 69.1 µM
- GI50 (COLO 205 colon): 5.57 µM
- TGI (COLO 205 colon): 20.1 µM
- GI50 (RXF 393 renal): 25.4 µM
- TGI (RXF 393 renal): 63.1 µM
- GI50 (TK-10 renal): 10.8 µM
- TGI (TK-10 renal): 40.1 µM
- GI50 (SK-MEL-28 melanoma): 13.8 µM
- TGI (SK-MEL-28 melanoma): 39.9 µM
- GI50 (KM12 colon): 4.75 µM
- TGI (KM12 colon): 24.3 µM
- GI50 (UO-31 renal): 1.12 µM
- TGI (UO-31 renal): 13.3 µM
- GI50 (EKVX NSCLC): 4.04 µM
- TGI (EKVX NSCLC): 34.9 µM
- GI50 (IGROV1 ovarian): 1.82 µM
- TGI (IGROV1 ovarian): 16.4 µM

Structure (SMILES): CN(Cc1cc(C(C)(C)C)cc(Br)c1O)Cc1cc(C(C)(C)C)cc(Br)c1O
- TGI (OVCAR-5 ovarian): 18.5 µM
- TGI (COLO 205 colon): 28.4 µM
- TGI (RXF 393 renal): 7.98 µM
- TGI (TK-10 renal): 5.88 µM
- TGI (SK-MEL-28 melanoma): 17.4 µM
- TGI (SK-MEL-2 melanoma): 5.86 µM
- TGI (KM12 colon): 12.9 µM
- TGI (UO-31 renal): 12.7 µM
- TGI (EKVX NSCLC): 12.7 µM
- TGI (IGROV1 ovarian): 13.5 µM

Structure (SMILES): O=C(/C=C/c1ccc(C(F)(F)F)cc1)c1ccc(Nc2nc(NCCO)nc(Nc3ccc(Cl)cc3)n2)cc1
- GI50 (OVCAR-5 ovarian): 5.93 µM
- TGI (OVCAR-5 ovarian): 18.8 µM
- GI50 (COLO 205 colon): 4.8 µM
- TGI (COLO 205 colon): 17.3 µM
- GI50 (RXF 393 renal): 1.82 µM
- TGI (RXF 393 renal): 4.16 µM
- GI50 (SK-MEL-28 melanoma): 5.88 µM
- TGI (SK-MEL-28 melanoma): 18.3 µM
- GI50 (SK-MEL-2 melanoma): 11.7 µM
- TGI (SK-MEL-2 melanoma): 24.5 µM
- GI50 (KM12 colon): 2.13 µM
- TGI (KM12 colon): 4.84 µM
- GI50 (UO-31 renal): 1.75 µM
- TGI (UO-31 renal): 4.39 µM
- GI50 (EKVX NSCLC): 3.41 µM
- TGI (EKVX NSCLC): 14.5 µM
- GI50 (IGROV1 ovarian): 4.92 µM
- TGI (IGROV1 ovarian): 16.2 µM

Structure (SMILES): Oc1ccc2oc3ncc(Br)c(-c4ccccc4)c3c2c1
- GI50 (OVCAR-5 ovarian): > 100 µM
- TGI (OVCAR-5 ovarian): > 100 µM
- GI50 (RXF 393 renal): > 100 µM
- TGI (RXF 393 renal): > 100 µM
- GI50 (TK-10 renal): > 100 µM
- TGI (TK-10 renal): > 100 µM
- GI50 (SK-MEL-28 melanoma): > 100 µM
- TGI (SK-MEL-28 melanoma): > 100 µM
- GI50 (SK-MEL-2 melanoma): > 100 µM
- TGI (SK-MEL-2 melanoma): > 100 µM
- GI50 (KM12 colon): > 100 µM
- TGI (KM12 colon): > 100 µM
- GI50 (UO-31 renal): > 100 µM
- TGI (UO-31 renal): > 100 µM
- GI50 (EKVX NSCLC): > 100 µM
- TGI (EKVX NSCLC): > 100 µM
- GI50 (IGROV1 ovarian): > 100 µM
- TGI (IGROV1 ovarian): > 100 µM

Structure (SMILES): COc1cccc(NC(=O)/C(Cc2nc3ccccc3nc2C)=N/NC(=O)C[n+]2ccccc2)c1
- TGI (OVCAR-5 ovarian): > 100 µM
- TGI (COLO 205 colon): 44.6 µM
- TGI (TK-10 renal): > 100 µM
- TGI (SK-MEL-28 melanoma): > 100 µM
- TGI (SK-MEL-2 melanoma): > 100 µM
- TGI (KM12 colon): > 100 µM
- TGI (UO-31 renal): > 100 µM
- TGI (EKVX NSCLC): > 100 µM
- TGI (IGROV1 ovarian): > 100 µM
